Results reported in US20140221374A1, “RAF KINASE INHIBITORS” (Ruga Corporation, priority 2011, published 2014).

Assays:
V600E-mutated B-RAF = V600E-mutated B-RAF (Homo sapiens, UniProt P15056, V600E); assay: In vitro assay for inhibition of mutant B-RAF kinase (recombinant V600E-mutated B-RAF, MEK (K97R) substrate); assay type: biochemical; settings: 10 nM recombinant V600E-mutated B-RAF
Experimental: The ability of compounds described herein to inhibit RAF kinase activity were determined from biochemical kinase inhibition assays using recombinant RAF proteins as known in the art.
Solutions of varying concentrations of test compounds or vehicle were added to 10 nM recombinant V600E-mutated B-RAF proteins incubated in the presence of different concentrations of ATP and […] (K97R) as substrate, as previously described (Wilhelm, S. M., et al., Cancer Res., 64: 7099-7109, 2004; Mason, C. S., et al.; EMBO J. 18: 2137-2.148, 1999; Marais, R., et al., J. Biol. Chem., 272: 4378-4383, 1997). At least triplicate determinations for each individual test compound concentration were made and data plotted as mean±standard deviation relative to the control vehicle.

[1] = system: A375 cells (V600E activated B-RAF); assay: In vitro tumor cell growth inhibition, MTT, 72 hours; assay type: cell-based; settings: Homo sapiens, A-375, 72 hours incubation
Experimental: Briefly, growth inhibition of cells containing V600E activated B-RAF (A375, Colo205) versus cell lines with wild-type B-RAF (A431) were measured under anchorage-dependent conditions using MTT (3-(4,5-dimethylthiazol-2-yl)-2,5-diphenyltetrazolium bromide), following 72 hours incubation with either compound or vehicle, as previously described (Haass, N. K., et al., Clinical Cancer Res., 14: 230-239, 2008): Cell lines are obtained from the American Type Tissue Culture Collection (Maryland, USA) and cultured in media containing heat-inactivated 10% fetal bovine serum. Cell cultures were also maintained in 10 U/mL, penicillin, 100 μg/mL streptomycin and 2 mM glutamine. At least triplicate determinations for each individual test compound concentration were made and data plotted as mean±standard deviation relative to the control vehicle.

Sequence of V600E-mutated B-RAF (P15056 whole entry V600E): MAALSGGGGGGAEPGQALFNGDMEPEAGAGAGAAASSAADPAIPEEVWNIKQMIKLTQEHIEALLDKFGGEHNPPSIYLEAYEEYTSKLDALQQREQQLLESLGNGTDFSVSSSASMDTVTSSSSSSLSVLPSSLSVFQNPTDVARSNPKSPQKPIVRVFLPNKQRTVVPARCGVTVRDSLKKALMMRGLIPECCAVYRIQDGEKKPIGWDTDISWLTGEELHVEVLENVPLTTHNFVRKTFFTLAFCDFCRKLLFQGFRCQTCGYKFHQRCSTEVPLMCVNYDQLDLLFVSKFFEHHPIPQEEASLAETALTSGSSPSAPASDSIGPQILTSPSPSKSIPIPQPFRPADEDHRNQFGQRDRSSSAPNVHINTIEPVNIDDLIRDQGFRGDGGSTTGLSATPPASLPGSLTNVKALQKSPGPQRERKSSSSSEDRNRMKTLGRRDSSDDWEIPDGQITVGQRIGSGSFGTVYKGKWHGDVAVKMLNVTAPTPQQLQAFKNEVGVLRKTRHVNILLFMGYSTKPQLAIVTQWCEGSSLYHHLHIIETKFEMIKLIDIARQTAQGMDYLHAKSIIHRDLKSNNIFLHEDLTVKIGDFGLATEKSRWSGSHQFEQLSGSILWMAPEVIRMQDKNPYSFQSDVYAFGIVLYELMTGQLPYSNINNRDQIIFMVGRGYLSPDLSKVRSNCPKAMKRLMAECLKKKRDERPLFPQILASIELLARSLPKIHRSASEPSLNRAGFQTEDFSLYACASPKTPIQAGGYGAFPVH

SMILES | IC50 (V600E-mutated B-RAF) | IC50 [1]
Cc1nc(-c2ccncc2)c(-c2cccc(NC(=O)Nc3ccc(Cl)c(C(F)(F)F)c3)c2)s1 [Example 2, 1-(4-chloro-3-(trifluoromethyl)phenyl)-3-(3-(2-methyl-4-(pyridin-4-yl)thiazol-5-yl)phenyl)urea] | ≤ 0.1 µM | 
Cc1nc(-c2ccncc2)c(-c2cccc(NC(=O)Nc3ccc(Cl)cc3)c2)s1 [Example 3, 1-(4-chlorophenyl)-3-(3-(2-methyl-4-(pyridin-4-yl)thiazol-5-yl)phenyl)urea] | ≤ 0.1 µM | 1 to 10 µM
Cc1nc(-c2ccncc2)c(-c2cccc(NC(=O)Nc3ccc(F)cc3)c2)s1 [Example 4, 1-(4-fluorophenyl)-3-(3-(2-methyl-4-(pyridin-4-yl)thiazol-5-yl)phenyl)urea] | 0.1 to 1 µM | 
Cc1nc(-c2ccncc2)c(-c2cccc(NC(=O)Nc3cc(F)ccc3F)c2)s1 [Example 5, 1-(2,5-difluorophenyl)-3-(3-(2-methyl-4-(pyridin-4-yl)thiazol-5-yl)phenyl)urea] | 0.1 to 1 µM | 
Cc1nc(-c2ccncc2)c(-c2cccc(NC(=O)Nc3c(F)cccc3F)c2)s1 [Example 6, 1-(2,6-difluorophenyl)-3-(3-(2-methyl-4-(pyridin-4-yl)thiazol-5-yl)phenyl)urea] | 0.1 to 1 µM | 
Cc1ccc(NC(=O)Nc2ccc(F)c(-c3sc(C)nc3-c3ccncc3)c2)cc1 [Example 8, 1-(4-fluoro-3-(2-methyl-4-(pyridin-4-yl)thiazol-5-yl)phenyl)-3-p-tolylurea] | ≤ 0.1 µM | 
Cc1nc(-c2ccncc2)c(-c2cccc(NC(=O)Nc3ccc(C(F)(F)F)cc3)c2)s1 [Example 9, 1-(3-(2-methyl-4-(pyridin-4-yl)thiazol-5-yl)phenyl)-3-(4-(trifluoromethyl)phenyl)urea] | ≤ 0.1 µM | 0.1 to 1 µM
Cc1nc(-c2ccncc2)c(-c2ccc(F)c(NC(=O)Nc3ccc(Cl)c(Cl)c3)c2)s1 [Example 11, 1-(3,4-dichlorophenyl)-3-(2-fluoro-5-(2-methyl-4-(pyridin-4-yl)thiazol-5-yl)phenyl)urea] | ≤ 0.1 µM | 
Cc1nc(-c2ccncc2)c(-c2ccc(F)c(NC(=O)Nc3ccc(Cl)cc3F)c2)s1 [Example 12, 1-(4-chloro-2-fluorophenyl)-3-(2-fluoro-5-(2-methyl-4-(pyridin-4-yl)thiazol-5-yl)phenyl)urea] | ≤ 0.1 µM | 
Cc1nc(-c2ccncc2)c(-c2ccc(F)c(NC(=O)Nc3cccc(Cl)c3)c2)s1 [Example 13, 1-(3-chlorophenyl)-3-(2-fluoro-5-(2-methyl-4-(pyridin-4-yl)thiazol-5-yl)phenyl)urea] | ≤ 0.1 µM | 1 to 10 µM
Cc1nc(-c2ccncc2)c(-c2ccc(F)c(NC(=O)Nc3ccc(C(F)(F)F)cc3)c2)s1 [Example 14, 1-(2-fluoro-5-(2-methyl-4-(pyridin-4-yl)thiazol-5-yl)phenyl)-3-(4-(trifluoromethyl)phenyl)urea] | ≤ 0.1 µM | 1 to 10 µM
Cc1nc(-c2ccncc2)c(-c2cccc(NC(=O)Nc3ccc(C(F)(F)F)cc3)c2F)s1 [Example 15, 1-(2-fluoro-3-(2-methyl-4-(pyridin-4-yl)thiazol-5-yl)phenyl)-3-(4-(trifluoromethyl)phenyl)urea] | 0.1 to 1 µM | 1 to 10 µM
Cc1nc(-c2ccncc2)c(-c2ccc(F)c(NC(=O)Nc3cccc(C(F)(F)F)c3)c2)s1 [Example 16, 1-(2-fluoro-5-(2-methyl-4-(pyridin-4-yl)thiazol-5-yl)phenyl)-3-(3-(trifluoromethyl)phenyl)urea] | ≤ 0.1 µM | > 10 µM
Cc1nc(-c2ccncc2)c(-c2cccc(NC(=O)Nc3ccc(S(C)(=O)=O)cc3)c2)s1 [Example 17, 1-(3-(2-methyl-4-(pyridin-4-yl)thiazol-5-yl)phenyl)-3-(4-(methylsulfonyl)phenyl)urea] | ≤ 0.1 µM | > 10 µM
Cc1nc(-c2ccncc2)c(-c2cccc(NC(=O)Nc3ccc(Cl)cc3)c2F)s1 [Example 18, 1-(4-chlorophenyl)-3-(2-fluoro-3-(2-methyl-4-(pyridin-4-yl)thiazol-5-yl)phenyl)urea] | 0.1 to 1 µM | 
Cc1ccc(NC(=S)Nc2cccc(-c3sc(C)nc3-c3ccncc3)c2)cc1 [Example 19, 1-(3-(2-methyl-4-(pyridin-4-yl)thiazol-5-yl)phenyl)-3-p-tolylthiourea] | ≤ 0.1 µM | 
Cc1nc(-c2ccnc(N)c2)c(-c2cccc(NC(=O)Nc3ccc(Cl)cc3)c2F)s1 [Example 23, 1-(3-(4-(2-aminopyridin-4-yl)-2-methylthiazol-5-yl)-2-fluorophenyl)-3-(4-chlorophenyl)urea] | 0.1 to 1 µM | 

SMILES | IC50 (V600E-mutated B-RAF) | IC50 [1]
Cc1ccc(NC(=O)Nc2cccc(-c3sc(C(C)(C)C)nc3-c3ccncc3)c2)cc1 [Example 27, 1-(3-(2-tert-butyl-4-(pyridin-4-yl)thiazol-5-yl)phenyl)-3-p-tolylurea] | 0.1 to 1 µM | 
COCCNc1cc(-c2nc(C(C)(C)C)sc2-c2cccc(NC(=O)Nc3ccc(C)cc3)c2)ccn1 [Example 28, 1-(3-(2-tert-butyl-4-(2-(2-methoxyethylamino)pyridin-4-yl)thiazol-5-yl)phenyl)-3-p-tolylurea] | 1 to 10 µM | 
Cc1ccc(NC(=O)Nc2cccc(-c3sc(C(C)(C)C)nc3-c3ccnc(NCCO)c3)c2)cc1 [Example 29, 1-(3-(2-tert-butyl-4-(2-(2-hydroxyethylamino)pyridin-4-yl)thiazol-5-yl)phenyl)-3-p-tolylurea] | ≤ 0.1 µM | 
Cc1ccc(NC(=O)Nc2cccc(-c3sc(C(C)(C)C)nc3-c3ccnc(NCCN(C)C)c3)c2)cc1 [Example 30, 1-(3-(2-tert-butyl-4-(2-(2-(dimethylamino)ethylamino)pyridin-4-yl)thiazol-5-yl)phenyl)-3-p-tolylurea] | ≤ 0.1 µM | 
Cc1ccc(NC(=O)Nc2cccc(-c3sc(C(C)(C)C)nc3-c3ccnc(NCCN4CCCC4)c3)c2)cc1 [Example 31, 1-(3-(2-tert-butyl-4-(2-(2-(pyrrolidin-1-yl)ethylamino)pyridin-4-yl)thiazol-5-yl)phenyl)-3-p-tolylurea] | ≤ 0.1 µM | 
COC(=O)N[C@@H](C)CNc1cc(-c2nc(C(C)(C)C)sc2-c2cccc(NC(=O)Nc3ccc(C)cc3)c2)ccn1 [Example 32, (S)-methyl 1-(4-(2-tert-butyl-5-(3-(3-p-tolylureido)phenyl)thiazol-4-yl)pyridin-2-ylamino)propan-2-ylcarbamate] | ≤ 0.1 µM | 
O=C(Nc1ccc(Cl)cc1)Nc1cc(-c2sc(NCCN3CCOCC3)nc2-c2ccncc2)ccc1F [Example 36, 1-(4-chlorophenyl)-3-(2-fluoro-5-(2-(2-morpholinoethylamino)-4-(pyridin-4-yl)thiazol-5-yl)phenyl)urea] | ≤ 0.1 µM | 
Nc1nc(-c2ccncc2)c(-c2cccc(NC(=O)Nc3ccc(C(F)(F)F)cc3)c2F)s1 [Example 38, 1-(3-(2-amino-4-(pyridin-4-yl)thiazol-5-yl)-2-fluorophenyl)-3-(4-(trifluoromethyl)phenyl)urea] | 0.1 to 1 µM | 
Nc1nc(-c2ccncc2)c(-c2cccc(NC(=O)Nc3ccc(Cl)cc3)c2F)s1 [Example 39, 1-(3-(2-amino-4-(pyridin-4-yl)thiazol-5-yl)-2-fluorophenyl)-3-(4-chlorophenyl)urea] | 1 to 10 µM | 
Nc1nc(-c2ccncc2)c(-c2ccc(F)c(NC(=O)Nc3ccc(Cl)cc3)c2)s1 [Example 40, 1-(5-(2-amino-4-(pyridin-4-yl)thiazol-5-yl)-2-fluorophenyl)-3-(4-chlorophenyl)urea] | ≤ 0.1 µM | 
Cc1nc(-c2ccncc2)c(-c2cccc(NS(=O)(=O)c3c(F)cccc3F)c2)s1 [Example 42, 2,6-difluoro-N-(3-(2-methyl-4-(pyridin-4-yl)thiazol-5-yl)phenyl)benzenesulfonamide] | 0.1 to 1 µM | 
Cc1nc(-c2ccnc(N)c2)c(-c2cccc(NS(=O)(=O)c3c(F)cccc3F)c2)s1 [Example 43, N-(3-(4-(2-aminopyridin-4-yl)-2-methylthiazol-5-yl)phenyl)-2,6-difluorobenzenesulfonamide] | 1 to 10 µM | 
CC(C)(C)c1nc(-c2ccncc2)c(-c2cccc(NS(=O)(=O)c3c(F)cccc3F)c2)s1 [Example 44, N-(3-(2-tert-butyl-4-(pyridin-4-yl)thiazol-5-yl)phenyl)-2,6-difluorobenzenesulfonamide] | 0.1 to 1 µM | 
Cc1ccc(CC(=O)Nc2cccc(-c3sc(C)nc3-c3ccnc(N)c3)c2)cc1 [Example 45, N-[3-(2-Methyl-4-(2-aminopyridin-4-yl)-thiazol-5-yl)-phenyl]-p-tolylacetamide] | 0.1 to 1 µM | 
Cc1ccc(CC(=O)Nc2cccc(-c3sc(C(C)(C)C)nc3-c3ccncc3)c2)cc1 [Example 46, N-(3-(2-tert-butyl-4-(pyridin-4-yl)thiazol-5-yl)phenyl)-2-p-tolylacetamide] | 1 to 10 µM | 
CCn1cc(-c2cccc(NC(=O)Nc3ccc(S(=O)(=O)N4CCCC4)cc3)c2)c(-c2ccncc2)n1 [Example 58, 1-(3-(1-ethyl-3-(pyridin-4-yl)-1H-pyrazol-4-yl)phenyl)-3-(4-(pyrrolidin-1-ylsulfonyl)phenyl)urea] | > 10 µM | 
